Reference: article PMC11149885 (PLOS ONE, 2024)
Read-outs that look alike come from different tables or passages of the source.

Key:
FGFR3 = target: T1, FGFR3 (Homo sapiens, UniProt P22607); assay: HotSpot kinase screen; format: biochemical; conditions: 10μM ATP
T1 construct: purchased Reaction Biology Corporation (contract assay)

FGFR2 = target: T2, FGFR2 (Homo sapiens, UniProt P21802); assay: HotSpot kinase screen; format: biochemical; conditions: 10μM ATP
T2 construct: purchased Reaction Biology Corporation (contract assay)
Protocol: (§1) Measurement of kinase activity was performed by Reaction Biology Corporation (Reaction Biology Corporation, Malvern, PA), using the HotSpot™ assay. The screen focused on RTKs reported in the literature to play a major role in the regulation of angiogenesis (VEGFR1, VEGFR2, and VEGFR3; fibroblast growth factor receptor [FGFR] 1, 2, and 3; and platelet-derived growth factor receptor beta [PDGFRβ]) as well as an RTK essential for maintaining blood vessel stability (TIE2). For the profiling, specific kinase/substrate pairs and required cofactors were prepared in a reaction buffer (20mM Hepes [pH 7.5], 10mM MgCl2, 1mM EGTA, 0.02% Brij35, 0.02 mg/mL BSA, 0.1mM Na3VO4, 2mM DTT, 1% dimethyl sulfoxide [DMSO]). TKI compounds were diluted to 10μM and 1μM concentrations for the screens and after addition to the reaction buffer incubated for 20 minutes, followed by the addition of a mixture of ATP (Sigma, St. Louis, MO) and ^33P-ATP (Perkin Elmer, Waltham, MA) to a final ATP concentration of 10μM. Reactions were carried out at room temperature for 2 hours, followed by spotting of the reactions onto P81 ion exchange filter paper (Whatman Inc., Piscataway, NJ). Unbound phosphate was removed by extensive washing of the filters. […] Kinome TREEspot images representing levels of inhibition were prepared using Kinome Mapper (https://www.reactionbiology.com/resources/tools/kinase-mapper).

VEGFR3 [1] = target: T3, VEGFR3 (Homo sapiens, UniProt P35916); assay: HotSpot kinase screen; format: biochemical; conditions: 10μM ATP
T3 construct: purchased Millipore Corporation (Dundee, Scotland) or Reaction Biology Corporation (contract assay)
T3 sequence (P35916 25-1363): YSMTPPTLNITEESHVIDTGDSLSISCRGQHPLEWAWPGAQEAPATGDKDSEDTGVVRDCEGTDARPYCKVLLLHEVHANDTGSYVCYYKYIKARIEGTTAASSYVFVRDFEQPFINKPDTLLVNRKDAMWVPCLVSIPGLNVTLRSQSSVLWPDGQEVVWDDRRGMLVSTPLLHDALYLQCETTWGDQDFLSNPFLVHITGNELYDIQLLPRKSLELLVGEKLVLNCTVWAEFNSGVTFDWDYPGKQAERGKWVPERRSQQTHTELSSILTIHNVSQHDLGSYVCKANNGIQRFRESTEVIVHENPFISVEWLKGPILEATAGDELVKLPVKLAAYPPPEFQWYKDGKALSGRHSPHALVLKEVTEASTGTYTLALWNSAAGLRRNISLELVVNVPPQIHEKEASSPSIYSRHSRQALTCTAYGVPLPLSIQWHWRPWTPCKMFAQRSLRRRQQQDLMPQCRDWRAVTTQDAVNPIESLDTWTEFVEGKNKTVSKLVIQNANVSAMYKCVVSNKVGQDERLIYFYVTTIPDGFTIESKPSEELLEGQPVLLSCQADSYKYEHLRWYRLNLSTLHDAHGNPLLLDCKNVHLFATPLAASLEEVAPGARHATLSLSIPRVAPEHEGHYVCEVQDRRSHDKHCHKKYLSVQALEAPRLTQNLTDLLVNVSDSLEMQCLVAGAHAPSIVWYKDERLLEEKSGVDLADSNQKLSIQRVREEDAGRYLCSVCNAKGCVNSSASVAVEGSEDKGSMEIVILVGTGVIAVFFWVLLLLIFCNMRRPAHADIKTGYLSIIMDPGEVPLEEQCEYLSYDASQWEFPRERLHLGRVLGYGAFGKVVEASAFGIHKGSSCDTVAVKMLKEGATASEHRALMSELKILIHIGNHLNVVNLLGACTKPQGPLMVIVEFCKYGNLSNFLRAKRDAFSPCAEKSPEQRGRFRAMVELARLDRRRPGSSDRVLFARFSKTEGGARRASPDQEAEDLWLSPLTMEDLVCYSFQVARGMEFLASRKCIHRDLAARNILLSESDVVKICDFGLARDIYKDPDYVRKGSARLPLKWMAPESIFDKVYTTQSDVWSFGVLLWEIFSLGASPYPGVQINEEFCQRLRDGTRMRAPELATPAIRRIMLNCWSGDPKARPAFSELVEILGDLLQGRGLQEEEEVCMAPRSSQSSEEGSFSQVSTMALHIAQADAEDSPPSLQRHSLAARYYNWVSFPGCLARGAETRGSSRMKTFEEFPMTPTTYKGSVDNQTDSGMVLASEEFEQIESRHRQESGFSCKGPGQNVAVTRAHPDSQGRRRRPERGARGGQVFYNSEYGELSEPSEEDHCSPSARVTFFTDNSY
Protocol: as §1

PDGFRβ = target: T4, PDGFRβ (Homo sapiens, UniProt P09619); assay: HotSpot kinase screen; format: biochemical; conditions: 10μM ATP
T4 construct: purchased Reaction Biology Corporation (contract assay)

VEGFR2 [2] = target: T5, VEGFR2 (Homo sapiens, UniProt P35968); assay: Ten-dose IC50 measurement; format: biochemical; conditions: 10μM ATP
T5 construct: purchased Millipore Corporation (Dundee, Scotland) or Reaction Biology Corporation (contract assay)
T5 sequence (P35968 20-1356): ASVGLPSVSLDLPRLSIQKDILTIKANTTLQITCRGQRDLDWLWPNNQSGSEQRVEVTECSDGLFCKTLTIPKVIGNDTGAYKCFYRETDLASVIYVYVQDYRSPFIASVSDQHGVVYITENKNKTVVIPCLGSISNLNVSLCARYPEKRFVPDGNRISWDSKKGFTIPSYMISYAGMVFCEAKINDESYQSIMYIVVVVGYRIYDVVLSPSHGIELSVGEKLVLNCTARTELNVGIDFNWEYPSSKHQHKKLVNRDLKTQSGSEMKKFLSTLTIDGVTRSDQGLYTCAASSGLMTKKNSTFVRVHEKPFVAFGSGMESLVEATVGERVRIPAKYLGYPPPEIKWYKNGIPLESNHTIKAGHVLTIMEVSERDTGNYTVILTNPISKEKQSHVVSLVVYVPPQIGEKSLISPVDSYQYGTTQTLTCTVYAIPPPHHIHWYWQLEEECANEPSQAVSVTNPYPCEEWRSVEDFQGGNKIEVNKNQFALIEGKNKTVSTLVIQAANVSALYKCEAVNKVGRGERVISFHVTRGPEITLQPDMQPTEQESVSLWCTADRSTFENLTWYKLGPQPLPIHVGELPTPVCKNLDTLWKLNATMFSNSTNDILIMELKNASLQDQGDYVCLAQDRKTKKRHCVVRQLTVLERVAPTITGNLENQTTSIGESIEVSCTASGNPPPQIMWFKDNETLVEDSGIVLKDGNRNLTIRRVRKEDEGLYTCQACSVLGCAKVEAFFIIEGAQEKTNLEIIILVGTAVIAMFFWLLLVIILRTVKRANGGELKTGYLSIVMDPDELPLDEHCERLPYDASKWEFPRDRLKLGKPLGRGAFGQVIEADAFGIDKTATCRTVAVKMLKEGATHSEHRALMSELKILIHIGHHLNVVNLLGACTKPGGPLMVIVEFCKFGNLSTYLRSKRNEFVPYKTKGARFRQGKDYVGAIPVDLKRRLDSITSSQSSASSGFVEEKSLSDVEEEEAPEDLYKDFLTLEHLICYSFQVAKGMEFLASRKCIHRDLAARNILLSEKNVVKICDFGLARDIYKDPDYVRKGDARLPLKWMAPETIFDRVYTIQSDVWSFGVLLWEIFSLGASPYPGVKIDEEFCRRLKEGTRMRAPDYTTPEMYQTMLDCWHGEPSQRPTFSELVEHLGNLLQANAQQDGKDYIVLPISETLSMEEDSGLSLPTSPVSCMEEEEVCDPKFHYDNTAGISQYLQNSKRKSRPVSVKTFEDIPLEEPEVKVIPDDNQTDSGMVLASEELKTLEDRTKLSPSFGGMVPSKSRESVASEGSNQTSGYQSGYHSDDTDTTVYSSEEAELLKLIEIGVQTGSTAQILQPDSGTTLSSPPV

VEGFR3 [3] = target: T3, VEGFR3; assay: Ten-dose IC50 measurement; format: biochemical; conditions: 10μM ATP
[4] = tested on: VEGF-A–induced sprouting of HUVECs; assay: HUVEC spheroid sprouting assay; format: cell-based, human; conditions: for cumulative sprout length per spheroid (CSL), mean: 25 ng/mL VEGF-165, 24 hours
Protocol: The three TKI compounds were tested by Reaction Biology Europe (Freiburg, Germany) in the spheroid-based cellular angiogenesis assay to determine their effect on VEGF-A–induced sprouting of HUVECs. Primary HUVECs from pooled donors at passage 3 to 4 (PromoCell, Heidelberg, Germany) were grown in endothelial cell growth and basal medium (ECGM/ECBM, PromoCell). Test compounds were prepared as 100-fold concentrated stock solutions in DMSO and pre-diluted in basal medium. HUVECs were stimulated using 25 ng/mL VEGF-165 (Reaction Biology Europe, Freiburg, Germany) pre-diluted in basal medium.
Spheroids were prepared as described by pipetting 400 HUVECs in a hanging drop on plastic dishes to allow overnight spheroid aggregation. Fifty HUVEC spheroids were seeded in 0.9 mL of a collagen gel and pipetted into individual wells of a 24-well plate to allow polymerization. Test compounds and VEGF-165 were added after 30 minutes by pipetting 100 μL of a ten-fold concentrated solution onto the polymerized gel. Plates were incubated at 37°C for 24 hours, and cells were fixed by adding 4% paraformaldehyde (Roth, Karlsruhe, Germany). Sprouting intensity of HUVEC spheroids treated with the test samples was quantitated using an image analysis system to determine the cumulative sprout length (CSL) per spheroid. Images of single spheroids were captured using an inverted microscope and the digital imaging software NIS-Elements BR 3.0 (Nikon). Spheroid pictures were uploaded to Wimasis (www.wimasis.com) for image analysis. The CSL of each spheroid was determined using the imaging analysis tool WimSprout. The mean CSL of ten randomly selected spheroids was analyzed as an individual data point.

VEGFR2 [5] = target: T5, VEGFR2; assay: Previously reported IC50 (literature); format: biochemical; conditions: nM value converted, S2 Fig legend
VEGFR2 [6] = target: T5, VEGFR2; conditions: cited from earlier work
VEGFR1 = VEGFR1 (Homo sapiens, UniProt P17948); assay: Ten-dose IC50 measurement
Chain of VEGFR1 (P17948 27-1338): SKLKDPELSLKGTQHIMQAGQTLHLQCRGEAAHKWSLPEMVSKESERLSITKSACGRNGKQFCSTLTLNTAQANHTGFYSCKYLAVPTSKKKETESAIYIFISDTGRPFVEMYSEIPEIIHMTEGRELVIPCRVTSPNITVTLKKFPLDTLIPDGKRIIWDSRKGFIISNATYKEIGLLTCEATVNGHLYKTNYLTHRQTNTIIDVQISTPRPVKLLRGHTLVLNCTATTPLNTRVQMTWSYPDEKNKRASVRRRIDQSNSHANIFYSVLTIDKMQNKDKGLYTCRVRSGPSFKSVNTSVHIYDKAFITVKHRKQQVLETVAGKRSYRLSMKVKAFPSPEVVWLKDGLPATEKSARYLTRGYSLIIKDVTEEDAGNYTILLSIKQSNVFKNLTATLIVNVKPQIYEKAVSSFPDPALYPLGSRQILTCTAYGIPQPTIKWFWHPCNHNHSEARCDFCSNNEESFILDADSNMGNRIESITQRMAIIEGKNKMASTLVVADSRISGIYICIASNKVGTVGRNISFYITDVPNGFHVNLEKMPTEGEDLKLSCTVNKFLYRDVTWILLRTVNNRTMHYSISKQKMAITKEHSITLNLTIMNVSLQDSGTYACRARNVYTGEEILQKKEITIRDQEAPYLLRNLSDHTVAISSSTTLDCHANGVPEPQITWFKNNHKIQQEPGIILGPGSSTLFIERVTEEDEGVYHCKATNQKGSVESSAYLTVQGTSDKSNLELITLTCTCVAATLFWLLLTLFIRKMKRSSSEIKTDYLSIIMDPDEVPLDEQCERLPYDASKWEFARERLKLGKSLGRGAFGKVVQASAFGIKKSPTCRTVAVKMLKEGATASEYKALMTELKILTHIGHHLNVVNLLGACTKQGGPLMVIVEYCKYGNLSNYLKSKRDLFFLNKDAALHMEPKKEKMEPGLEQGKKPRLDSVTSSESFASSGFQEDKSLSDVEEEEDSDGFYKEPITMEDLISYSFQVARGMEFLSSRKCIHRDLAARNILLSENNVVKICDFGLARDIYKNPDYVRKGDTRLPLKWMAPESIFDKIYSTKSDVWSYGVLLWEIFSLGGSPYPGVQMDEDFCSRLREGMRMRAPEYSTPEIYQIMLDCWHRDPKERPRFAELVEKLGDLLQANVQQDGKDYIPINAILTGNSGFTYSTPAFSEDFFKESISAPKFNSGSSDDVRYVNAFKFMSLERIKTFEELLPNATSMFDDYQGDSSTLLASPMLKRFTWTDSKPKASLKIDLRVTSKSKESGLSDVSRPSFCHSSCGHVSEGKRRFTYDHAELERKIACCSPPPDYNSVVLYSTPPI

TIE2 = TIE2 (Homo sapiens, UniProt Q02763); assay: Ten-dose IC50 measurement
Chain of TIE2 (Q02763 23-1124): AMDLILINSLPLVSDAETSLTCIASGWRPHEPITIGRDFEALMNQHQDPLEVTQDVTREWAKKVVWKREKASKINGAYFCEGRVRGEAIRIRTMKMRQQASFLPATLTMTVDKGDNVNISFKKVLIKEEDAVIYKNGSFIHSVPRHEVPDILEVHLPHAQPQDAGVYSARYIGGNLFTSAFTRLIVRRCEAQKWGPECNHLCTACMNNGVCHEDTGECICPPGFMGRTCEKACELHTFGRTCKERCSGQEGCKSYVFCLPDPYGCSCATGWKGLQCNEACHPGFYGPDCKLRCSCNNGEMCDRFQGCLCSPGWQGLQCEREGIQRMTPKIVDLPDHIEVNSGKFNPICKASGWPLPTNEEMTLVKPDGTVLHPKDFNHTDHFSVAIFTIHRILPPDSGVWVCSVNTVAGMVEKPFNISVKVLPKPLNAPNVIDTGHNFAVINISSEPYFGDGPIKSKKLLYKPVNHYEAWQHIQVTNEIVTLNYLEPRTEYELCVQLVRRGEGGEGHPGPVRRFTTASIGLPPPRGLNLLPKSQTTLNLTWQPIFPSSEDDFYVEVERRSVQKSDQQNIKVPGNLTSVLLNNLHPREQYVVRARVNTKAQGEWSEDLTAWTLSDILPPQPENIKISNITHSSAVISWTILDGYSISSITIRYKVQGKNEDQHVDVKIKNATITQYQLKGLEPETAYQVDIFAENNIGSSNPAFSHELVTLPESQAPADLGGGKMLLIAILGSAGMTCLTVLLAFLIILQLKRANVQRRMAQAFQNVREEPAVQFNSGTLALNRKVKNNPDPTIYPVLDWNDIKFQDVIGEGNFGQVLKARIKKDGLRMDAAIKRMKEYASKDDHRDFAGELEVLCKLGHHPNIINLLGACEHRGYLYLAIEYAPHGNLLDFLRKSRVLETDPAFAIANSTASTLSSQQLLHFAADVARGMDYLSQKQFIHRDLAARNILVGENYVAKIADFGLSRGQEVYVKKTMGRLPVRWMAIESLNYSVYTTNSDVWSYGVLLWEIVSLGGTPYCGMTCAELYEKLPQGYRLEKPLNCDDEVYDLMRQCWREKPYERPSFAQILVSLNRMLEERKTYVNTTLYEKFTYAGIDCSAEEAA

Structure (SMILES): Cc1[nH]c(/C=C2\C(=O)Nc3ccc(F)cc32)c(C)c1C(=O)N[C@H]1CCN(C(=O)N(C)C)C1 [Vorolanib]
- Avg % Inhibition FGFR3 (FGFR3; 1uM TKI): 63.96%
- Avg % Inhibition FGFR3 (FGFR3; 10uM TKI): 86.13%
- Avg % Inhibition FGFR2 (FGFR2; 1uM TKI): 56.64%
- Avg % Inhibition FGFR2 (FGFR2; 10uM TKI): 90.82%
- Avg % Inhibition VEGFR3 (VEGFR3 [1]; 1uM TKI): 90.14%
- Avg % Inhibition VEGFR3 (VEGFR3 [1]; 10uM TKI): 98.55%
- Avg % Inhibition PDGFRb (PDGFRβ; 1uM TKI): 83.57%
- Avg % Inhibition PDGFRb (PDGFRβ; 10uM TKI): 94.8%
- IC50 (VEGFR2 [2]; S1 Dataset, read-out: IC50 VEGFR2): 7.61e-08 M
- %Activity VEGFR2 (VEGFR2 [2]; 1.00E-05 M TKI): 7.53%
- %Activity VEGFR2 (VEGFR2 [2]; 1.11E-06 M TKI): 15.96%
- %Activity VEGFR2 (VEGFR2 [2]; 1.23E-07 M TKI): 39.66%
- %Activity VEGFR2 (VEGFR2 [2]; 1.37E-08 M TKI): 76.92%
- %Activity VEGFR2 (VEGFR2 [2]; 1.52E-09 M TKI): 90.70%
- %Activity VEGFR2 (VEGFR2 [2]; 3.33E-06 M TKI): 8.61%
- %Activity VEGFR2 (VEGFR2 [2]; 3.70E-07 M TKI): 24.16%
- %Activity VEGFR2 (VEGFR2 [2]; 4.12E-08 M TKI): 62.72%
- %Activity VEGFR2 (VEGFR2 [2]; 4.57E-09 M TKI): 90.18%
- %Activity VEGFR2 (VEGFR2 [2]; 5.08E-10 M TKI): 99.81%
- IC50 (VEGFR2 [2]; Fig 3A inset, unit inferred, plot axes in (M), read-out: Compound IC50 data for VEGFR-2: IC50): 7.61e-08 M
- IC50 (VEGFR3 [3]; S1 Dataset, read-out: IC50 VEGFR3): 3.39e-08 M
- %Activity VEGFR3 (VEGFR3 [3]; 1.00E-05 M TKI): 2.39%
- %Activity VEGFR3 (VEGFR3 [3]; 1.11E-06 M TKI): 8.63%
- %Activity VEGFR3 (VEGFR3 [3]; 1.23E-07 M TKI): 30.49%
- %Activity VEGFR3 (VEGFR3 [3]; 1.37E-08 M TKI): 60.22%
- %Activity VEGFR3 (VEGFR3 [3]; 1.52E-09 M TKI): 79.65%
- %Activity VEGFR3 (VEGFR3 [3]; 3.33E-06 M TKI): 4.43%
- %Activity VEGFR3 (VEGFR3 [3]; 3.70E-07 M TKI): 18.98%
- %Activity VEGFR3 (VEGFR3 [3]; 4.12E-08 M TKI): 44.44%
- %Activity VEGFR3 (VEGFR3 [3]; 4.57E-09 M TKI): 68.37%
- %Activity VEGFR3 (VEGFR3 [3]; 5.08E-10 M TKI): 81.12%
- IC50 (VEGFR3 [3]; Fig 3A inset, unit inferred, plot axes in (M), read-out: Compound IC50 data for VEGFR-3: IC50): 3.39e-08 M
- cumulative sprout length per spheroid (CSL), mean ([4]; 1.00E-05 M TKI): 144
- cumulative sprout length per spheroid (CSL), mean ([4]; 1.00E-06 M TKI): 242
- cumulative sprout length per spheroid (CSL), mean ([4]; 1.00E-07 M TKI): 455
- cumulative sprout length per spheroid (CSL), mean ([4]; 3.00E-06 M TKI): 269
- cumulative sprout length per spheroid (CSL), mean ([4]; 3.00E-07 M TKI): 241
- cumulative sprout length per spheroid (CSL), mean ([4]; 3.00E-08 M TKI): 992
- vessel sprouting (representative spheroid images) ([4]; highest test concentration of 1×10^–5M): zero vessel sprouting
- IC50 (VEGFR2 [5]): 52.3 nM
- IC50 (VEGFR2 [6]; determined by Millipore Corporation prior to the study, read-out: VEGFR2 IC50 (used to set CAM doses)): 52 nM
- IC50 (VEGFR2 [6]; previously reported, read-out: VEGFR2 IC50): 1.12 nM
- %Activity VEGFR1 (VEGFR1; 1.00E-05 M TKI, 10μM ATP): 15.82%
- %Activity VEGFR1 (VEGFR1; 1.11E-06 M TKI, 10μM ATP): 42.07%
- %Activity VEGFR1 (VEGFR1; 1.37E-08 M TKI, 10μM ATP): 89.38%
- %Activity VEGFR1 (VEGFR1; 1.52E-09 M TKI, 10μM ATP): 85.26%
- %Activity VEGFR1 (VEGFR1; 3.33E-06 M TKI, 10μM ATP): 22.84%
- %Activity VEGFR1 (VEGFR1; 3.70E-07 M TKI, 10μM ATP): 64.45%
- %Activity VEGFR1 (VEGFR1; 4.12E-08 M TKI, 10μM ATP): 79.63%
- %Activity VEGFR1 (VEGFR1; 4.57E-09 M TKI, 10μM ATP): 88.85%
- IC50 (VEGFR1; Compound IC50 data for VEGFR-1: IC50, Fig 3A inset, unit inferred, plot axes in (M), 10μM ATP): 9.44e-07 M
- IC50 (VEGFR1; IC50 VEGFR1, 10μM ATP, S1 Dataset): 9.44e-07 M
- %Activity TIE2 (TIE2; 1.00E-05 M TKI, 10μM ATP): 69.30%
- %Activity TIE2 (TIE2; 1.11E-06 M TKI, 10μM ATP): 100.16%
- %Activity TIE2 (TIE2; 1.37E-08 M TKI, 10μM ATP): 100.50%
- %Activity TIE2 (TIE2; 1.52E-09 M TKI, 10μM ATP): 103.72%
- %Activity TIE2 (TIE2; 3.33E-06 M TKI, 10μM ATP): 83.50%
- %Activity TIE2 (TIE2; 3.70E-07 M TKI, 10μM ATP): 100.13%
- %Activity TIE2 (TIE2; 4.12E-08 M TKI, 10μM ATP): 99.77%
- %Activity TIE2 (TIE2; 4.57E-09 M TKI, 10μM ATP): 100.65%
- %Activity TIE2 (TIE2; 5.08E-10 M TKI, 10μM ATP): 98.18%
- IC50 (TIE2; IC50 TIE2, 10μM ATP, S1 Dataset): 20700 nM
- IC50 (TIE2; TIE2 IC50, determined by Reaction Biology (US), 10μM ATP): 20700 nM
